Laboratory results reported in ChEMBL document CHEMBL5356939, “Research progress of anticancer drugs targeting CDK12” (RSC Med Chem, 2023).
Each block holds one compound with its values, some of them ahead of it.

Columns and labels:
[1] = Antiproliferative activity against human Neuroblastoma cell assessed as […] measured after 72 hrs; format: functional, cell-based
Lung cancer cell line = assay: Antiproliferative activity against human Lung cancer cell line assessed as […] measured after 72 hrs; format: functional, cell-based
[2] = target: T1, Cyclin-dependent kinase 12 (Homo sapiens, UniProt Q9NYV4); assay: Inhibition of GST-tagged recombinant human CDK12 (696 to 1082 residues) expressed in Insect cell in presence of ATP by Km ATP assay
T1 sequence (Q9NYV4 whole entry, the tested form may be a part): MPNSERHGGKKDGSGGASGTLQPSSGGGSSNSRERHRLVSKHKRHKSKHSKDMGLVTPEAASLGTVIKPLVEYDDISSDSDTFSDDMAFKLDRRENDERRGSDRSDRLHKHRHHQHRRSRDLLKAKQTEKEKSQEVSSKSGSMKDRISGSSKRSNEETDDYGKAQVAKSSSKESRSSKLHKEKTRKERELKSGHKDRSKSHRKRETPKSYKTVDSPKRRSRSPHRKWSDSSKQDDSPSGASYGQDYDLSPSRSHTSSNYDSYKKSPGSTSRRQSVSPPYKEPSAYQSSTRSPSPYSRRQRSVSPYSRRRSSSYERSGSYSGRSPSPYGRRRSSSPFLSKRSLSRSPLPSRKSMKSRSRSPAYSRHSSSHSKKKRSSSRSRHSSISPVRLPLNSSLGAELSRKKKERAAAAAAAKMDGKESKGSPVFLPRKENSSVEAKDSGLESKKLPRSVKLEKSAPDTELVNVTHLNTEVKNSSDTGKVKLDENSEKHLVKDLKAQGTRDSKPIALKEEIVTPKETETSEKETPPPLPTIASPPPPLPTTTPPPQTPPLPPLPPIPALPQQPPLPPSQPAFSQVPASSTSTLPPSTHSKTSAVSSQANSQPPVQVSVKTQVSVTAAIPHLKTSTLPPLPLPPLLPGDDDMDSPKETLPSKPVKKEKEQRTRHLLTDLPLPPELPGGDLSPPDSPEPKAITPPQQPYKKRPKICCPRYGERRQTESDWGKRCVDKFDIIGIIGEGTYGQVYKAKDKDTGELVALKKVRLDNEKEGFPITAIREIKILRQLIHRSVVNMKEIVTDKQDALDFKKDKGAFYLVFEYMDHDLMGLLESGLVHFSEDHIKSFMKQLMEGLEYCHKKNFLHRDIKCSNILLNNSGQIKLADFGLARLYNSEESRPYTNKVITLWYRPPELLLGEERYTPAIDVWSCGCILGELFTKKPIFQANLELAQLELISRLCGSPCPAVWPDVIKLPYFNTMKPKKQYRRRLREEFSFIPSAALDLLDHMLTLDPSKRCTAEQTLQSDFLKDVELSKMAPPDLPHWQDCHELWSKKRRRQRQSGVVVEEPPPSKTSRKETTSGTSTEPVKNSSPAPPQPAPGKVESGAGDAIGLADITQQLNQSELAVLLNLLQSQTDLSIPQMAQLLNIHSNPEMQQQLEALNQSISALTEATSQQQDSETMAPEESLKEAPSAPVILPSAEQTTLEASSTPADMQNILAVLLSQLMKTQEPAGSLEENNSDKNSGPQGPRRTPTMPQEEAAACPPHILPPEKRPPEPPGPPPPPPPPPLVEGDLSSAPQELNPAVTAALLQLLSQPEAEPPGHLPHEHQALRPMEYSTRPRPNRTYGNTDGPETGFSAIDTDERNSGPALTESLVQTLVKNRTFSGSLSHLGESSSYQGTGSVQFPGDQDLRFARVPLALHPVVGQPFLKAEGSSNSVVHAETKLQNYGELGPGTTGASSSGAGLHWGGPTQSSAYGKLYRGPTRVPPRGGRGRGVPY

[3] = target: Cyclin-dependent kinase 12 (Mus musculus, UniProt Q14AX6); assay: Inhibition of CDK12 in mouse OV2944-HM-1 cells by Westernblot analysis; format: cell-based
Chain of Cyclin-dependent kinase 12 (Mus musculus, UniProt Q14AX6) (Q14AX6 whole entry): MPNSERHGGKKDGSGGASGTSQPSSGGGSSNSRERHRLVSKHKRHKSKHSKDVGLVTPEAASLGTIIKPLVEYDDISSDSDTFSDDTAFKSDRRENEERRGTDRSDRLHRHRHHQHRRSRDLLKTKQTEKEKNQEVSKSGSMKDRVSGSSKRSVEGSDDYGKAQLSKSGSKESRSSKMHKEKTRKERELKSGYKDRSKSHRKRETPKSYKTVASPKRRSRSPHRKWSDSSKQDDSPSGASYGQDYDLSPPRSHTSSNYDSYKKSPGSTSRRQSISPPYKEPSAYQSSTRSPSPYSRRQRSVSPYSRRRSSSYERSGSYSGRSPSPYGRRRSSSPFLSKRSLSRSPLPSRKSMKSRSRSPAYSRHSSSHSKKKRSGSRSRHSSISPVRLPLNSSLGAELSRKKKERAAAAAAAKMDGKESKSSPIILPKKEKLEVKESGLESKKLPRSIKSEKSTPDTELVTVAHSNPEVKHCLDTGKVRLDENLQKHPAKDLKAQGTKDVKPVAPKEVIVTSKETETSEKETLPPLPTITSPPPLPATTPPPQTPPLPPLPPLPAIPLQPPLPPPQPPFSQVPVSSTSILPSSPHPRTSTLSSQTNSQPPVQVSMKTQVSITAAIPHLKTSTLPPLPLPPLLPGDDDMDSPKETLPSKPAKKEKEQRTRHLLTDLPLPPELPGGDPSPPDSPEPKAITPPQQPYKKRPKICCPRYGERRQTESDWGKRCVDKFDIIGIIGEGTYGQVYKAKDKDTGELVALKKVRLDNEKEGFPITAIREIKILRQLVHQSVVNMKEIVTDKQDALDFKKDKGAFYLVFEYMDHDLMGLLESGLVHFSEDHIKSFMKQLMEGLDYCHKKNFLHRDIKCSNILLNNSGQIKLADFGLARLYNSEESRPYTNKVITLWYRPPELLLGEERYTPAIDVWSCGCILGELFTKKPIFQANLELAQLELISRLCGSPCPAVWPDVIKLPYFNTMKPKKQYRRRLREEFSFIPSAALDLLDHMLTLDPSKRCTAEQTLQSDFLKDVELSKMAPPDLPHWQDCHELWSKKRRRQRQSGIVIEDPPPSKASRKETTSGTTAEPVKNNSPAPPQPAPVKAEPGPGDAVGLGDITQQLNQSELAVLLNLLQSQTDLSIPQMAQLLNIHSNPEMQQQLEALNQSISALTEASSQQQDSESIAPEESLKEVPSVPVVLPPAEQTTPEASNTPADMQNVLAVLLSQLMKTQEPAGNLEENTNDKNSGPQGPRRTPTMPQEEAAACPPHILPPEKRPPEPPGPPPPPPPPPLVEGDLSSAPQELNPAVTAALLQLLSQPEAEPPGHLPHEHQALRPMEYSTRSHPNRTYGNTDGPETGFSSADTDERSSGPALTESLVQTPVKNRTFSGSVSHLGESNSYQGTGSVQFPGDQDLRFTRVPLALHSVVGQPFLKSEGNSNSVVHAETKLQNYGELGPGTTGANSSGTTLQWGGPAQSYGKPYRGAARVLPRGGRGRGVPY

[4] = target: T2, Cyclin-dependent kinase 7 (Homo sapiens, UniProt P50613); assay: Inhibition of full length recombinant human CDK7 expressed in Insect cell in presence of ATP
T2 sequence (P50613 whole entry): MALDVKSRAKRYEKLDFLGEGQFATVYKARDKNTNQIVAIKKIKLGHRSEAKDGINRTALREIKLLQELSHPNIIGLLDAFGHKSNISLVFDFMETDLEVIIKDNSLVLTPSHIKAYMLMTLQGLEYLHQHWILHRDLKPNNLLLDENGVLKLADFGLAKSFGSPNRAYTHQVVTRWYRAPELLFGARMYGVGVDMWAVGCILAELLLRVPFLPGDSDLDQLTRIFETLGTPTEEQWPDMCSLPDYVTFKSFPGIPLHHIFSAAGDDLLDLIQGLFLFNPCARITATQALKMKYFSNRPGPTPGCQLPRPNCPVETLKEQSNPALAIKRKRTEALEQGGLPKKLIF

[5] = target: Cyclin-dependent kinase 1 (Homo sapiens, UniProt P06493); assay: Inhibition of full length recombinant human CDK1 expressed in Insect cell in presence of ATP
Chain of Cyclin-dependent kinase 1 (P06493 whole entry): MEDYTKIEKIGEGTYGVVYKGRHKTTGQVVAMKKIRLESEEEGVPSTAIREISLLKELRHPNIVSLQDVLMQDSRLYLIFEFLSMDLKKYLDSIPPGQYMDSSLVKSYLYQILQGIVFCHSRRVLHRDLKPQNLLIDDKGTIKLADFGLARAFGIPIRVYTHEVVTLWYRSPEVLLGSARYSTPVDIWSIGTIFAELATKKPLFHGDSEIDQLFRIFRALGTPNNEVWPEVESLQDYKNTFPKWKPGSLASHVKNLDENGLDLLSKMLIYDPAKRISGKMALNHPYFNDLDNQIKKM

[6] = target: T3, Protein cereblon/Cyclin-dependent kinase 12 (Homo sapiens, UniProt Q96SW2+Q9NYV4); assay: Protac activity at CRBN/CDK12 in human Jurkat cells assessed as […] measured after 6 hrs by Westernblot analysis; format: cell-based
T3 sequence (Q9NYV4 whole entry, the tested form may be a part): as the sequence (Q9NYV4 whole entry, the tested form may be a part) above
T3 sequence (Q96SW2 whole entry, the tested form may be a part): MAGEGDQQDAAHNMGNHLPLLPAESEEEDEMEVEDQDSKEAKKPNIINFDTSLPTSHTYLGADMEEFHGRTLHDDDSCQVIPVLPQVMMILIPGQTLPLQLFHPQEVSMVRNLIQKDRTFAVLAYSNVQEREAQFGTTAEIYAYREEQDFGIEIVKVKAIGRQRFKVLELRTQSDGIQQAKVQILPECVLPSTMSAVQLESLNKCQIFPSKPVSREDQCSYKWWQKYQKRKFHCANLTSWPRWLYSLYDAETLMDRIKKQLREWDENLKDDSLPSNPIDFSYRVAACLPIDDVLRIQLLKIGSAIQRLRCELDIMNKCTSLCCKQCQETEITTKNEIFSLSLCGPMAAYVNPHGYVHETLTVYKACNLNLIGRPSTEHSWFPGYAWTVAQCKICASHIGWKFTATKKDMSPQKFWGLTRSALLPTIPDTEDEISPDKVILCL

[7] = target: T1, Cyclin-dependent kinase 12; assay: Inhibition of GST-tagged recombinant human CDK12 (696 to 1082 residues) expressed in Insect cell in presence of ATP by high ATP assay
[8] = target: T4, Cyclin-dependent kinase 9 (Homo sapiens, UniProt P50750); assay: Inhibition of full length recombinant human CDK9 expressed in Insect cell in presence of ATP
T4 sequence (P50750 whole entry): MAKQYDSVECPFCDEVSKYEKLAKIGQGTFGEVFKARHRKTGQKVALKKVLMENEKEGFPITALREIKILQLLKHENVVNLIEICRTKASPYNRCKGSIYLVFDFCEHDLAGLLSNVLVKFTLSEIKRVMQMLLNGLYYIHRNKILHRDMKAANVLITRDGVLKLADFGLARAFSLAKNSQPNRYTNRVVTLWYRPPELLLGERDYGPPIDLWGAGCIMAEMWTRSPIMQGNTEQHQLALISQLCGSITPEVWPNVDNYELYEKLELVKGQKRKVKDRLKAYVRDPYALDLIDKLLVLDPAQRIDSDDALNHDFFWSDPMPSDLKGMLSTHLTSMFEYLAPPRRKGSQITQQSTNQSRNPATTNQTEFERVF

[9] = target: Cyclin-dependent kinase 2 (Homo sapiens, UniProt P24941); assay: Inhibition of full length recombinant human CDK2 expressed in Insect cell in presence of ATP
[10] = target: T4, Cyclin-dependent kinase 9
Description: Binding affinity to CDK9 (unknown origin) assessed as dissociation constant

[11] = target: Cyclin-dependent kinase 6 (Homo sapiens, UniProt Q00534)
Chain of Cyclin-dependent kinase 6 (Q00534 whole entry): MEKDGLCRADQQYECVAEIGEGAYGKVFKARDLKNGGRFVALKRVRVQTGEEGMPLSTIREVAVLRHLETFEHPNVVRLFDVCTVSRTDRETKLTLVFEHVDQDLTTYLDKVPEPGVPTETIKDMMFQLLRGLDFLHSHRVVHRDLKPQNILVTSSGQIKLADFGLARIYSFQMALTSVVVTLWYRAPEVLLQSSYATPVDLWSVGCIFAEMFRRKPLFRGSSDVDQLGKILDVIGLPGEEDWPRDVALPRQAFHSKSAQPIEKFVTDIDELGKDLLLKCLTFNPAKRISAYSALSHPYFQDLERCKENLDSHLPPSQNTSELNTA
Description: Binding affinity to CDK6 (unknown origin) assessed as dissociation constant

[12] = target: Cyclin-dependent kinase 13 (Homo sapiens, UniProt Q14004); assay: Inhibition of CDK13 (unknown origin)
[13] = target: T1, Cyclin-dependent kinase 12; assay: Inhibition of CDK12 (unknown origin)
[14] = target: T2, Cyclin-dependent kinase 7; assay: Inhibition of CDK7 (unknown origin)
[15] = target: T3, Protein cereblon/Cyclin-dependent kinase 12; assay: Protac activity at CRBN/CDK12 in human MOLT-4 cells assessed as […] by Westernblot analysis; format: cell-based
[16] = target: T4, Cyclin-dependent kinase 9; assay: Inhibition of recombinant human CDK9 expressed in baculovirus infected Insect cell measured after 30 mins by scintillation counter analysis

SMILES: O=C(CN1CCC[C@@H](Nc2ncc(Cl)c(-c3c[nH]c4ccccc34)n2)C1)Nc1ccc([As]2SCCS2)cc1
EC50 [3]: 32 nM

SMILES: CCn1cnc2c(NCc3nc4ccc(F)c(F)c4[nH]3)nc(N3CCCC[C@H]3CCO)nc21
IC50 [2]: 14 nM | IC50 [4]: > 30000 nM | IC50 [5]: 28600 nM

SMILES: CCc1cnn2c(NCc3nc4ccc(F)c(F)c4[nH]3)cc(N3CCCC[C@H]3CCO)nc12
IC50 [2]: 22 nM | IC50 [7]: 47 nM | IC50 [8]: 240 nM | IC50 [4]: 21200 nM | IC50 [9]: 40 nM | IC50 [5]: 3410 nM

SMILES: CN(C)C/C=C/C(O)Nc1ccc(C(=O)Nc2cccc(Nc3ncc(Cl)c(-c4c[nH]c5ccccc45)n3)c2)cc1 (stereo not drawn)
IC50 [12]: 628 nM | IC50 [13]: 893 nM | IC50 [14]: 238 nM

SMILES: CN(C)C/C=C/C(=O)Nc1ccc(C(=O)N2CCC[C@@H](Nc3ncc(Cl)c(-c4c[nH]c5ccccc45)n3)C2)cc1
IC50 [16]: 10500 nM

SMILES: O=C(CN1CCC[C@@H](Nc2ncc(Cl)c(-c3c[nH]c4ccccc34)n2)C1)Nc1ccc([As](O)O)cc1
EC50 [3]: 35 nM

Further lines, with some results ahead:

IC50 (Lung cancer cell line): 8 nM
SMILES: C=CC(=O)Nc1cccc(Nc2nc(N3CCCC[C@H]3CCO)nc3c2ncn3CC)c1
IC50 [1]: 8 nM

IC50 [2]: 31 nM
SMILES: CC(C)n1cnc2c(NCc3nc4ccc(F)c(F)c4[nH]3)nc(N3CCCC[C@H]3CCO)nc21

IC50 [6]: 6 nM
SMILES: CC(C)S(=O)(=O)c1ccccc1Nc1nc(N[C@H]2CCCN(CCCCCCCNC(=O)COc3cccc4c3C(=O)N(C3CCC(=O)NC3=O)C4=O)C2)ncc1Cl (stereo partly drawn)

Kd [10]: > 10000 nM | Kd [11]: 5100 nM
SMILES: Cn1cc(-n2cnc3c(NCc4nc5cc(Cl)c(Cl)cc5[nH]4)nc(N4CCOCC4)nc32)cn1

IC50 [15]: 107 nM
SMILES: Clc1cnc(N[C@H]2CCCNC2)nc1-c1c[nH]c2ccccc12

IC50 [15]: 9 nM
SMILES: O=C(COc1cccc2c1C(=O)N(C1CCC(=O)NC1=O)C2=O)NCCCCCCCN1CCC[C@H](Nc2ncc(Cl)c(-c3c[nH]c4ccccc34)n2)C1 (stereo partly drawn)
